19 compounds from patent publication US20230295131A1, “INHIBITORS OF RHO-ASSOCIATED COILED-COIL KINASE” (Angion Biomedica Corp., priority 2020, published 2023) can be followed below.

Like-named read-outs stand apart in the source and are kept apart here.

In experiment [1] the target is T1, ROCK1 (Homo sapiens, UniProt Q13464).
T1 construct: T7 phage fusion (kinase-tagged phage) or DNA tag for qPCR detection
The experiment in a line: ROCK1 kinase binding affinity, DiscoverX KINOMEscan KdELECT. The conditions noted are these: 11-point 3-fold dilution. As for the experimental part: (§1) 1. ROCK1 and ROCK2 kinase assays: The ROCK1 and ROCK2 kinase binding affinities of compounds in this disclosure were determined by DiscoverX's KINOMEscan™ KdELECT technology (https://www.discoverx.com/kinomescan-elect-kinase-screening-and-profiling-services): Kinase-tagged T7 phage strains were prepared in an E. coli host derived from the BL21 strain. E. coli were grown to log-phase and infected with T7 phage and incubated with shaking at 32° C. until lysis. The lysates were centrifuged and filtered to remove cell debris. The remaining kinases were produced in HEK-293 cells and subsequently tagged with DNA for qPCR detection. […] The liganded beads were blocked with excess biotin and washed with blocking buffer (SeaBlock (Pierce), 1% BSA, 0.05% Tween 20, 1 mM DTT) to remove unbound ligand and to reduce nonspecific binding. […] Kds were determined using an 11-point 3-fold compound dilution series with three DMSO control points. […] The compounds were then diluted directly into the assays such that the final concentration of DMSO was 0.9%. All reactions performed in polypropylene 384-well plate. Each was a final volume of 0.02 ml. […] The kinase concentration in the eluates was measured by qPCR.

The target in experiment [2] is T2, ROCK2 (Homo sapiens, UniProt O75116).
T2 construct: T7 phage fusion (kinase-tagged phage) or DNA tag for qPCR detection
The experiment in a line: ROCK2 kinase binding affinity, DiscoverX KINOMEscan KdELECT. The conditions noted are these: for ROCK2 Selectivity: selectivity for ROCK2 over ROCK1 from Kd. As for the experimental part: as §1

Where [3] appears, read: KINOMEscan KdELECT, 11-point 3-fold dilution, read-out: Kd (μM) ROCK2.

T1 sequence (Q13464 whole entry, the tested form may be a part): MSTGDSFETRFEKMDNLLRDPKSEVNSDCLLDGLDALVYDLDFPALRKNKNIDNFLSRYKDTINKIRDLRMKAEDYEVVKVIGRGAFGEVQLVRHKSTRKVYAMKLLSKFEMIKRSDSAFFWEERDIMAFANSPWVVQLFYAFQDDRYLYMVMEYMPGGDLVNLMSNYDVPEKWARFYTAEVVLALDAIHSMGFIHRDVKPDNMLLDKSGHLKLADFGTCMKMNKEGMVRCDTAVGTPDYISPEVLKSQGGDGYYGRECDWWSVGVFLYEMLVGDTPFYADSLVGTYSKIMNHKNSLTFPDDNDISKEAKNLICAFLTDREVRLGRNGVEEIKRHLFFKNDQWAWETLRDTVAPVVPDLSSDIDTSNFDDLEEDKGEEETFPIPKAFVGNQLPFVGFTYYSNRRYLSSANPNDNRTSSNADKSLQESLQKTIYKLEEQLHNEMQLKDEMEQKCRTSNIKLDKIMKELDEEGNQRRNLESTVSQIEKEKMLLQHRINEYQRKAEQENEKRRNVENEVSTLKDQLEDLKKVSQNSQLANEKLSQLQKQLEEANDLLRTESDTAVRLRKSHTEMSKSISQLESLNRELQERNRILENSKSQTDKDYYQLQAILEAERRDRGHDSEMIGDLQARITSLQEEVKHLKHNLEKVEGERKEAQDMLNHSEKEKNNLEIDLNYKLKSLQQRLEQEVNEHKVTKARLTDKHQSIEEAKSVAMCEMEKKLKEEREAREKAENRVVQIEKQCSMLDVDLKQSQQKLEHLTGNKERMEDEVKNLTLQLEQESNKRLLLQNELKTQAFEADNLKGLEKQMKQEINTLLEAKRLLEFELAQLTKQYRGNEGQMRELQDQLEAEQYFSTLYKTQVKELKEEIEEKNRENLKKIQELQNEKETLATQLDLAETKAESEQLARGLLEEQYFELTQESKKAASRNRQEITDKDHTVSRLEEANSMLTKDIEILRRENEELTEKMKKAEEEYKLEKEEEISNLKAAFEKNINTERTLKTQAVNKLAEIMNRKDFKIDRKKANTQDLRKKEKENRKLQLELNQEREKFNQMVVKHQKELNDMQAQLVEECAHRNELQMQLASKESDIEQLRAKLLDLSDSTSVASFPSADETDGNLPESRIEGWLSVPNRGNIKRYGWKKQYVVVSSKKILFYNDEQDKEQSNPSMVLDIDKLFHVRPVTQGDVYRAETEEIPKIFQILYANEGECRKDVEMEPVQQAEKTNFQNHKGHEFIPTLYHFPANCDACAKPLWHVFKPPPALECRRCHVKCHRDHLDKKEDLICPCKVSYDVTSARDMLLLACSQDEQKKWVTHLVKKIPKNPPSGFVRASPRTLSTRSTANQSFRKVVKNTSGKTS
T2 sequence (O75116 whole entry, the tested form may be a part): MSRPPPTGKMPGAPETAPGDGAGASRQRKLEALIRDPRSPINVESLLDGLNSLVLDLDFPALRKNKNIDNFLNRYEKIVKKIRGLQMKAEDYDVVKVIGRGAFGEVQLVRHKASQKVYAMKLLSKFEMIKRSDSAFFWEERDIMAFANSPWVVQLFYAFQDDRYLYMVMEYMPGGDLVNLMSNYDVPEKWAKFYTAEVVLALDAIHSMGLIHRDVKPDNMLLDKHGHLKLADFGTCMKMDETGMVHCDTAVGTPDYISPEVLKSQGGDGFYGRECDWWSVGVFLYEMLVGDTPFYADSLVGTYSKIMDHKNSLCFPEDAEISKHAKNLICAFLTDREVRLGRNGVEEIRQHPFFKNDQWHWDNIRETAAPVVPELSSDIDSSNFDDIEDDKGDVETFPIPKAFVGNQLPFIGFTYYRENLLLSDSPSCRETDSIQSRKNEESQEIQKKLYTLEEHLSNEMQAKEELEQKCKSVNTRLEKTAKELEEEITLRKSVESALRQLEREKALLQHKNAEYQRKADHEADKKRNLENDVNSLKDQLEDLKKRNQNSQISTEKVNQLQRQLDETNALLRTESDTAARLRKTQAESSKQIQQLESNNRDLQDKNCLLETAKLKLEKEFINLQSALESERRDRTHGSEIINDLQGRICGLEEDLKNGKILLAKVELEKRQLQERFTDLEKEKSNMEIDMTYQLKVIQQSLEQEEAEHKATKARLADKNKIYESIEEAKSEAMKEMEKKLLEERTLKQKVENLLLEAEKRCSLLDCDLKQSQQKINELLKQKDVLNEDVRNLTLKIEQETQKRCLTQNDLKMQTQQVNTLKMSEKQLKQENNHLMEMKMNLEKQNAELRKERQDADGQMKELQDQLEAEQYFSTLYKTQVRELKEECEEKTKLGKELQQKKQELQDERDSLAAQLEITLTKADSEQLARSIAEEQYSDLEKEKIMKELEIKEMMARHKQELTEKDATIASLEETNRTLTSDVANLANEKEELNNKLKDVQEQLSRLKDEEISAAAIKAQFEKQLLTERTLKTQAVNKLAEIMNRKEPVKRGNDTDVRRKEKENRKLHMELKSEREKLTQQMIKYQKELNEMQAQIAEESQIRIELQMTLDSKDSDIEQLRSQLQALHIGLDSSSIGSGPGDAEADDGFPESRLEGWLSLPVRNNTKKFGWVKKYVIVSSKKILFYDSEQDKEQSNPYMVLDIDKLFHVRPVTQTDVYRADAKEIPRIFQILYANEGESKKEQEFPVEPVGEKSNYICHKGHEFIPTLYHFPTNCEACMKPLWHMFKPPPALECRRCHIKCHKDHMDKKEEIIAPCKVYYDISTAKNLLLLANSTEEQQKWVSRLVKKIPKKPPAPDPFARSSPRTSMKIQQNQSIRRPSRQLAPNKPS

As for `O=C(CNc1nccc(-c2nccc(C#Cc3ccc4[nH]ncc4c3)n2)n1)N1CCOCC1` [Ex. 41, 2-((4-((1H-Indazol-5-yl)ethynyl)-[2,4′-bipyrimidin]-2′-yl)amino)-1-morpholinoethanone], the Kd is 1 to 9.9 µM in experiment [1] and under 0.01 µM in experiment [2] (setting [3]). For the same compound, the “ROCK2 Selectivity” value in experiment [2] was “*** (151 to 500-fold selectivity for ROCK2)”.

As for `O[C@H]1CC[C@@H](Nc2nccc(-c3nccc(C#Cc4ccc5cncn5c4)n3)n2)CC1` [Ex. 96, (1s,4s)-4-((4-(Imidazo[1,5-a]pyridin-6-ylethynyl)-[2,4′-bipyrimidin]-2′-yl)amino)cyclohexanol], the Kd in experiment [1] was 10 to 100 µM; in experiment [2] (setting [3]), 0.01 to 0.099 µM. The “ROCK2 Selectivity” value in experiment [2] is reported as “** (50 to 150-fold selectivity for ROCK2)”.

`COCCNc1nccc(-c2nccc(C#Cc3ccc4[nH]ncc4c3)n2)n1` [Ex. 75, 4-((1H-Indazol-5-yl)ethynyl)-N-(2-methoxyethyl)-[2,4′-bipyrimidin]-2′-amine]: the Kd in experiment [1] is 1 to 9.9 µM. In addition, in experiment [2], the Kd is under 0.01 µM and the “ROCK2 Selectivity” value is “*** (151 to 500-fold selectivity for ROCK2)”.

For `C(#Cc1ccnc(-c2ccnc(NCc3ccccn3)n2)n1)c1ccc2[nH]ncc2c1` [Ex. 22, 4-((1H-Indazol-5-yl)ethynyl)-N-(pyridin-2-ylmethyl)-[2,4′-bipyrimidin]-2′-amine], the Kd in experiment [1] was in the range of 1 to 9.9 µM; in experiment [2] (setting [3]) it was 0.01 to 0.099 µM. Moreover, in experiment [2], the “ROCK2 Selectivity” value is given as “** (50 to 150-fold selectivity for ROCK2)”.

For `Cc1n[nH]c2ccc(C#Cc3ccnc(-c4ccnc(NCc5ccc(F)cn5)n4)n3)cc12` [Ex. 71, N-((5-Fluoropyridin-2-yl)methyl)-4-((3-methyl-1H-indazol-5-yl)ethynyl)-[2,4′-bipyrimidin]-2′-amine], the Kd in experiment [1] and in experiment [2] (setting [3]) was 0.1 to 0.99 µM in each case. The “ROCK2 Selectivity” value in experiment [2] is listed as “* (<50-fold selectivity for ROCK2)”.

On to `C(#Cc1ccnc(-c2ccnc(NC[C@@H]3CCOC3)n2)n1)c1ccc2[nH]ncc2c1` [Ex. 58, (S)-4-((1H-Indazol-5-yl)ethynyl)-N-((tetrahydrofuran-3-yl)methyl)-[2,4′-bipyrimidin]-2′-amine], for which the Kd was 1 to 9.9 µM in experiment [1] and under 0.01 µM in experiment [2] (setting [3]). Further, the “ROCK2 Selectivity” value in experiment [2] is reported as “**** (>500-fold selectivity for ROCK2)”.

`CC1(O)CN(C(=O)CNc2nccc(-c3nccc(C#Cc4ccc5[nH]ncc5c4)n3)n2)C1` [Ex. 84, 2-((4-((1H-Indazol-5-yl)ethynyl)-[2,4′-bipyrimidin]-2′-yl)amino)-1-(3-hydroxy-3-methylazetidin-1-yl)ethanone]: the figures for the Kd in experiment [1] and in experiment [2] (setting [3]) were 1 to 9.9 µM and 0.01 to 0.099 µM, respectively. Also, the “ROCK2 Selectivity” value in experiment [2] is listed as “* (<50-fold selectivity for ROCK2)”.

As to `O=S1(=O)CC[C@H](Nc2nccc(-c3nccc(C#Cc4ccc5[nH]ncc5c4)n3)n2)C1` [Ex. 83, (S)-3-((4-((1H-Indazol-5-yl)ethynyl)-[2,4′-bipyrimidin]-2′-yl)amino)tetrahydrothiophene 1,1-dioxide], the results for the Kd in experiment [1] and in experiment [2] (setting [3]) were 0.1 to 0.99 µM and under 0.01 µM, respectively. The “ROCK2 Selectivity” value in experiment [2] was “*** (151 to 500-fold selectivity for ROCK2)”.

`C(#Cc1ccnc(-c2ccnc(NCc3ncc[nH]3)n2)n1)c1ccc2[nH]ncc2c1` [Ex. 23, N-((1H-Imidazol-2-yl)methyl)-4-((1H-indazol-5-yl)ethynyl)-[2,4′-bipyrimidin]-2′-amine]: the dissociation constant Kd in experiment [1] lay in the range of 1 to 9.9 µM; in experiment [2] (setting [3]), 0.01 to 0.099 µM. The “ROCK2 Selectivity” value in experiment [2] is given as “** (50 to 150-fold selectivity for ROCK2)”.

Take `Fc1ncccc1CNc1nccc(-c2nccc(C#Cc3cc(F)c4[nH]ncc4c3)n2)n1` [Ex. 42, 4-((7-Fluoro-1H-indazol-5-yl)ethynyl)-N-((2-fluoropyridin-3-yl)methyl)-[2,4′-bipyrimidin]-2′-amine]: the Kd was in the range of 1 to 9.9 µM in experiment [1] and 0.01 to 0.099 µM in experiment [2] (setting [3]). In experiment [2], the “ROCK2 Selectivity” value was “** (50 to 150-fold selectivity for ROCK2)”.

As for `O=C(CNc1nccc(-c2nccc(C#Cc3ccc4[nH]ncc4c3)n2)n1)N1CCCC1` [Ex. 52, 2-((4-((1H-Indazol-5-yl)ethynyl)-[2,4′-bipyrimidin]-2′-yl)amino)-1-(pyrrolidin-1-yl)ethanone], the Kd in experiment [1] is 0.1 to 0.99 µM; in experiment [2] (setting [3]), under 0.01 µM. The “ROCK2 Selectivity” value in experiment [2] is reported as “** (50 to 150-fold selectivity for ROCK2)”.

Consider `COc1cc(F)ccc1CNc1nccc(-c2nccc(C#Cc3ccc4[nH]ncc4c3)n2)n1` [Ex. 12, 4-((1H-Indazol-5-yl)ethynyl)-N-(4-fluoro-2-methoxybenzyl)-[2,4′-bipyrimidin]-2′-amine], for which the results for the Kd in experiment [1] and in experiment [2] (setting [3]) were 1 to 9.9 µM and 0.01 to 0.099 µM, respectively. The “ROCK2 Selectivity” value in experiment [2] is given as “*** (151 to 500-fold selectivity for ROCK2)”.

Regarding `Fc1ccc(CNc2nccc(-c3nccc(C#Cc4ccc5[nH]ncc5c4)n3)n2)cn1` [Ex. 47, 4-((1H-Indazol-5-yl)ethynyl)-N-((6-fluoropyridin-3-yl)methyl)-[2,4′-bipyrimidin]-2′-amine], the Kd in experiment [1] fell in the range of 1 to 9.9 µM; in experiment [2] (setting [3]), 0.01 to 0.099 µM. For the same compound, the “ROCK2 Selectivity” value in experiment [2] is “** (50 to 150-fold selectivity for ROCK2)”.

As to `Clc1ccc(CNc2nccc(-c3nccc(C#Cc4ccc5[nH]ncc5c4)n3)n2)nc1` [Ex. 16, 4-((1H-Indazol-5-yl)ethynyl)-N-((5-chloropyridin-2-yl)methyl)-[2,4′-bipyrimidin]-2′-amine], the values for the Kd in experiment [1] and in experiment [2] (setting [3]) were 0.1 to 0.99 µM and under 0.01 µM, respectively. For the same compound, in experiment [2], the “ROCK2 Selectivity” value is on record as “* (<50-fold selectivity for ROCK2)”.

`C(#Cc1ccnc(-c2ccnc(NCc3nc4ccccc4[nH]3)n2)n1)c1ccc2[nH]ncc2c1` [Ex. 57, N-((1H-Benzo[d]imidazol-2-yl)methyl)-4-((1H-indazol-5-yl)ethynyl)-[2,4′-bipyrimidin]-2′-amine]: the Kd in experiment [1] was 10 to 100 µM; in experiment [2] (setting [3]), 0.01 to 0.099 µM. The “ROCK2 Selectivity” value in experiment [2] is listed as “**** (>500-fold selectivity for ROCK2)”.

Take `O[C@H]1CC[C@@H](Nc2nccc(-c3nccc(C#Cc4ccc5[nH]nc(F)c5c4)n3)n2)C1` [Ex. 94, (1S,3R)-3-((4-((3-Fluoro-1H-Indazol-5-yl)ethynyl)-[2,4′-bipyrimidin]-2′-yl)amino)cyclopentanol]: the results for the Kd in experiment [1] and in experiment [2] (setting [3]) were 1 to 9.9 µM and under 0.01 µM, respectively. In experiment [2], the “ROCK2 Selectivity” value is recorded as “**** (>500-fold selectivity for ROCK2)”.

Turning to `CC1(C)CCC(CNc2nccc(-c3nccc(C#Cc4ccc5[nH]ncc5c4)n3)n2)O1` (stereo not drawn) [Ex. 68, 4-((1H-Indazol-5-yl)ethynyl)-N-((5,5-dimethyltetrahydrofuran-2-yl)methyl)-[2,4′-bipyrimidin]-2′-amine], the dissociation constant (Kd) in experiment [1] is 0.1 to 0.99 µM; in experiment [2] (setting [3]) it was under 0.01 µM. The “ROCK2 Selectivity” value in experiment [2] is reported as “*** (151 to 500-fold selectivity for ROCK2)”.

Turning to `Cc1cnc(CNc2nccc(-c3nccc(C#Cc4ccc5[nH]ncc5c4)n3)n2)nc1` [Ex. 4, 4-((1H-Indazol-5-yl)ethynyl)-N-((5-methylpyrimidin-2-yl)methyl)-[2,4′-bipyrimidin]-2′-amine], the Kd in experiment [1] fell in the range of 1 to 9.9 µM; in experiment [2] (setting [3]) it was 0.1 to 0.99 µM. For the same compound, the “ROCK2 Selectivity” value in experiment [2] is recorded as “* (<50-fold selectivity for ROCK2)”.

Regarding `C[C@@H](O)CNc1nccc(-c2nccc(C#Cc3ccc4[nH]ncc4c3)n2)n1` [Ex. 79, (R)-1-((4-((1H-Indazol-5-yl)ethynyl)-[2,4′-bipyrimidin]-2′-yl)amino)propan-2-ol], the Kd in experiment [1] is 1 to 9.9 µM. In experiment [2], the Kd lay in the range of 0.01 to 0.099 µM and the “ROCK2 Selectivity” value was “** (50 to 150-fold selectivity for ROCK2)”.

One may read the Kd as a measure of binding affinity in units of concentration.
